Tests used:
NK cells = test: IL-2-induced NK cell proliferation (3H-methyl-thymidine incorporation); format: cell-based, human; conditions: histamine 10^−4 M or catalase 20 U/ml, IL-2 50 U/ml, 48 hours
Method: During the last 8 hours of incubation, cells were pulsed with ^3H-methyl-thymidine (specific activity […]; New England Nuclear Corp.; 1 FCi/2×10^5 cells). Following incubation, the cells were collected on glass fiber filters with an automatic cell harvester and cell-incorporated ^3H-methyl-thymidine was estimated by liquid scintillography.

monocytes = test: Luminol-enhanced chemiluminescence (respiratory burst) of elutriated monocytes; format: cell-based, human
Method: Formylmethionyl-leucyl-phenylalanine was dissolved to 10^−2 M in dimethyl sulfoxide and subsequently diluted in Krebs-Ringer phosphate buffer supplemented with glucose (10 mM), Ca^2+ (1 mM), and Mg^2+ (1.5 mM).
In a second set of experiments, effects of histamine and H2R-interactive compounds on the respiratory burst activity, as measured by the luminol-enhanced CL response of enriched, elutriated monocytes, were studied. Monocytes were treated with culture medium (control), histamine (10^−5 M), sodium azide (10^−5 M), or histamine and sodium azide as described below. Emission of CL was recorded after addition of fMLP at time=0.
To assess whether histamine acted by inhibiting the generation of H2O2 or by reducing the availability of peroxidase, we next studied the effects of histamine in monocytes treated with sodium azide to inhibit endogenous myeloperoxidase (MPO) and with exogenous, azide-insensitive peroxidase (HRP) in excess.
To exclude non-specific effects of ranitidine, we used a ranitidine analog (AH20239AA; […]; Glaxo) in which the thioether of ranitidine is replaced by an ether, thereby strongly reducing its H2R antagonist properties. In these experiments, monocytes were treated with histamine (10^−5 M) together with ranitidine or AH20239AA at final concentrations indicated in FIG. 7. All cells were treated with fMLP at time=0. Peak CL recorded in untreated monocytes (control) was 2.5×10^7 cpm.

RBC = system: RBC
Method: (§1) Further, we used an assay system in which lysis of elutriated , ^51Cr -labelled RBC was measured in microplates.

[1] = system: NK cells (cytotoxicity against K562 target cells); test: cells; conditions: for reversal of inhibition of NK cells induced by H2O2: catalase 20 U/ml, data not shown; for time of addition at which the NK cell suppressive signal is inhibited: histamine 10^−4 M or catalase 20 U/ml added at time points after assay start; for effect on NK-cell-mediated killing of tumor cells in the absence of monocytes: no monocytes, NK cells unactivated or IL-2 activated
Method: Using blood obtained from a healthy human blood donor, we studied the effects of catalase on NK cell-mediated killing of tumor cells. K562 cells, from an NK sensitive erythroleukemic cell line, were used as target cells in all experiments. Washed cells (10×10^6 cells/ml) were incubated with ^51Cr (Amersham) at a concentration of 150 FCi/ml cell suspension for 2-4 hours. After centrifugation and resuspension in cell culture medium, 10^4 cells in 50 FL portions were added to the effector cells in microplate wells.
In the first set of experiments, human NK cells alone (1.5×10^5 cells/well) were added to the K562 target cells. […] The cells were then exposed to catalase (Boehringer-Mannheim) at concentrations of 0 to 100 U/ml. These same conditions were repeated using human NK cells admixed with 30% human peripheral blood monocytes, recovered by centrifugal elutriation, added to the target K562 cells.
After incubation at 37EC for 16 hours, supernatant fluids were collected by a tissue collecting system (Amersham) and assayed for radioactivity in a gamma counter. Maximum ^51Cr release was determined in target cell cultures treated with Triton-X. NK cell cytotoxicity was calculated as cell lysis % according to the following formula: [formula]
To study the relationship between the monocyte-derived inhibitory signal and the respiratory burst activity of monocytes, we added catalase and various other scavengers of reactive oxygen metabolites to NK cells, alone or admixed with monocytes. We then measured the cytotoxicity of the NK cells against NK cell sensitive K562 target cells as described above.
Cell culture medium (control), histamine (10^−4 M), or catalase (20 U/ml), was added to either enriched NK cells alone or a mixture of NK cells and monocytes (1.5×10^5 cells/well). These mixtures were then incubated with K562 target cells in sextuplicate in microplates in a total volume of 200 Fl and assayed for microcytotoxicity.
Culture medium (control) or H2O2 at concentrations between 0-10 FM was added to NK cell enriched lymphocytes for assay of cytotoxicity against ^51Cr K562 target cells as described above.
MPO (100 U/ml) and H2O2 at concentrations between 0-10 FM were added to NK cell enriched lymphocytes for assay of cytotoxicity against ^51Cr K562 target cells as described above.
A mixture of enriched NK cells and monocytes were treated with culture medium (control), histamine (10^−4 M), or catalase (20 U/ml) and assayed for microcytotoxicity against target K562 cells as described above in connection with Example 1. […] The data shown is cell lysis % ±s.e.m. of sextuplicates.

[2] = histamine 10^−4 M, cell free
Method: The reaction mixture contained 0.8 ml elutriated monocytes (5×10^6 cells/ml).
as §1

[3] = system: NK cells (cytotoxicity against K562 target cells)
Method: In additional experiments, NK cell enriched lymphocytes were pretreated in petri dishes with culture medium (control), catalase or histamine, in the concentrations indicated below in Table II, in the presence or absence of monocytes. After 1 hour incubation, nonadherent lymphocytes were recovered, washed twice, and assayed for cytotoxicity as described above. We wished to determine whether the NK cell inhibitory signal was reversible by removal of monocytes and removal of monocyte-derived products. […] Data are cell lysis % ±s.e.m. of sextuplicates and are the results of 2 separate experiments.

[4] = system: YAC-1 mouse lymphoma cells; test: NK cell-mediated clearance of 51Cr-labeled YAC-1 lymphoma cells from lungs in vivo; parameters: species or system Swiss Albino mice; conditions: 100 U/kg intravenously, 2 hours, four experiments
Method: FIG. 2 graphically depicts the activation of NK cell-mediated clearance of YAC-1 lymphoma cells in vivo by catalase. Seventy-five thousand YAC-1 cells labeled with ^51Cr were injected intravenously into male or female 4-6-week-old Swiss Albino mice, together with vehicle (control; open bars) or catalase (100 U/kg; filled bars). Two hours after the inoculation of tumor cells, the mice were sacrificed by cervical dislocation. […] Results from 4 separate experiments are shown. Each bar represents the mean “s.e.m. of 3-5 animals.
Seventy-five thousand ^51Cr-labeled, NK cell-sensitive YAC-1 mouse lymphoma cells were injected intravenously into male or female 4 to 6 week old Swiss Albino mice, together with vehicle (control) or 100 U/kg catalase. Two hours after inoculation with the tumor cells, the mice were sacrificed by cervical dislocation. The lungs were removed and placed in test tubes in a gamma-counter, and the radioactivity in the lung tissue was measured. The radioactivity in lung tissue is an inverse measure of NK cell-mediated killing of tumor cells in vivo (see Hanna et al., JNCI 65:801 (1980)), and is expressed as a percent of the ^51Cr that is retained in lungs immediately after inoculation of radiolabeled tumor cells.

Molecule: NCCc1c[nH]cn1 [histamine]
- reversal of monocyte-induced inhibition of IL-2-induced NK cell proliferation (NK cells): effectively reverse
- time to block respiratory burst activity (monocytes; data not shown): within seconds
- effect on burst activity of unstimulated monocytes and induction of burst by fMLP (monocytes; histamine 10^−5 M): effectively inhibited
- effect on fMLP induced CL response with sodium azide and exogenous HRP in excess (monocytes; sodium azide 10^−5 M, HRP): inhibited
- effect on level of RBC killing induced by H2O2 (RBC; histamine 10^−4 M): did not alter
- effect on monocyte-induced inhibition of baseline NK cell cytotoxicity [1]: abrogated
- concentration at which histamine abrogates monocyte induced suppression of NK cells ([1]; NK cells with monocytes): exceeding 10^−7 M
- reversal of inhibition of NK cells induced by H2O2 [1]: not
- effect of histamine on monocyte induced suppression of NK cells in the presence of catalase ([1]; catalase present): ineffective
- time of addition at which the NK cell suppressive signal is inhibited [1]: within the first hour
- CL recorded with H2O2 and/or MPO or H2O2 and HRP [2]: unchanged

Molecule: OO [H2O2, hydrogen peroxide]
- inhibition of NK cell cytotoxicity after pretreatment and washing [3]: sufficient to effectively inhibit
- lysis of RBC (RBC; H2O2 5×10^−5 M, 10^5 RBC): approximately 50%
- effect on cytotoxicity of enriched NK cells [1]: effectively suppressed
- EC50 ([1]; Homo sapiens, K562, read-out: ED50 of suppression of NK cell cytotoxicity): ~2000 nM

Molecule: OC[C@@H](O)[C@@H](O)[C@H](O)[C@H](O)CO [mannitol]
- effect on monocyte-induced inhibition of baseline NK cell cytotoxicity [1]: ineffective

Molecule: NCCS(=O)(=O)O [taurin]
- effect on monocyte-induced inhibition of baseline NK cell cytotoxicity [1]: ineffective

Molecule: superoxide dismutase [SOD]
- effect on monocyte-induced inhibition of baseline NK cell cytotoxicity [1]: did not alter

Molecule: CNC(=C[N+](=O)[O-])NCCOCc1ccc(CN(C)C)o1 [AH20239AA]
- potency relative to ranitidine in antagonizing inhibition of respiratory burst activity by histamine (fold less potent) (monocytes; histamine 10^−5 M): more than 100 fold
- potency relative to ranitidine in antagonizing effects of histamine on suppression of NK cell function by monocytes (fold less potent) [1]: more than 100 fold

Molecule: CC(=O)N(O)CCCCCNC(=O)CCC(=O)N(O)CCCCCNC(=O)CCC(=O)N(O)CCCCCN [deferox, deferoxamine]
- effect on monocyte-induced inhibition of baseline NK cell cytotoxicity [1]: ineffective

Molecule: CN(C)CCCSC(=N)N [Dimaprit]
- effect on the respiratory burst of monocytes (H2R-interactive compounds) (monocytes): mimicked the effect of histamine
- incubation time until effect on respiratory burst is maximal (monocytes; data not shown): 10 to 15 min

Molecule: catalase
- reversal of monocyte-induced inhibition of IL-2-induced NK cell proliferation (NK cells): effectively reverse
- NK cell-mediated killing of YAC-1 lymphoma cells in vivo (retained lung radioactivity) [4]: augmented
- effect on monocyte-induced inhibition of baseline NK cell cytotoxicity [1]: completely abrogate
- concentration at which catalase reverses the monocyte suppressive signal ([1]; NK cells with monocytes): exceeding 10 U/ml
- concentration at which catalase reverses the monocyte suppressive signal ([1]; NK cells with monocytes, listed as Catalase): exceeding 5 U/ml
- reversal of inhibition of NK cells induced by H2O2 [1]: completely reversed
- time of addition at which the NK cell suppressive signal is inhibited [1]: within the first hour
- effect on NK-cell-mediated killing of tumor cells in the absence of monocytes [1]: does not affect
- effect on NK-cell-mediated killing of tumor cells in the absence of monocytes ([1]; listed as Catalase): had no effect

Molecule: CN(C)CCSC(=N)N [nor-dimaprit]
- effect on the respiratory burst of monocytes (H2R-interactive compounds) (monocytes): ineffective

B1: myeloperoxidase (protein, UniProt P05164 165-745, looked up)
Myeloperoxidase: VTCPEQDKYRTITGMCNNRRSPTLGASNRAFVRWLPAEYEDGFSLPYGWTPGVKRNGFPVALARAVSNEIVRFPTDQLTPDQERSLMFMQWGQLLDHDLDFTPEPAARASFVTGVNCETSCVQQPPCFPLKIPPNDPRIKNQADCIPFFRSCPACPGSNITIRNQINALTSFVDASMVYGSEEPLARNLRNMSNQLGLLAVNQRFQDNGRALLPFDNLHDDPCLLTNRSARIPCFLAGDTRSSEMPELTSMHTLLLREHNRLATELKSLNPRWDGERLYQEARKIVGAMVQIITYRDYLPLVLGPTAMRKYLPTYRSYNDSVDPRIANVFTNAFRYGHTLIQPFMFRLDNRYQPMEPNPRVPLSRVFFASWRVVLEGGIDPILRGLMATPAKLNRQNQIAVDEIRERLFEQVMRIGLDLPALNMQRSRDHGLPGYNAWRRFCGLPQPETVGQLGTVLRNLKLARKLMEQYGTPNNIDIWMGGVSEPLKRKGRVGPLLACIIGTQFRKLRDGDRFWWENEGVFSMQQRQALAQISLPRIICDNTGITTVSKNNIFMSNSYPRDFVNCSTLPALNLASWREAS
- potentiation of the suppressive effect of H2O2 on NK cells ([1]; MPO 100 U/ml with H2O2 0-10 FM): did not potentiate
- scavenging of H2O2 ([1]; MPO 100 U/ml with H2O2 0-10 FM): slightly but significantly scavenged

From patent US6375946B1, “Enhanced activation of natural killer cells using an NK cell activator and a hydrogen peroxide scavenger or inhibitor” (Maxim Pharmaceuticals, Inc., priority 1994, dated 2002)
